Test results as given in US11452718B2 (AVALYN PHARMA INC., priority 2012, dated 2022).
Entries after “also recorded” stand apart in the source; their conditions may differ. Read-outs that look alike come from different tables or passages of the source. Marks after values point to notes of the source that are not given here.

Assays:
[1] = Rubino et al., cited from earlier work
[2] = Modeled human inhaled aerosol pirfenidone pharmacokinetics (FIG. 2, FIG. 5, Table 28)
Description: Aerosol deliver parameters for the FIGS. 2 and 5 models were based on high-efficiency, mesh-based nebulizer characterization (Table 12). […] Respirable delivered dose (RDD) calculated by the product of fine particle fraction (FPF, %<5 microns) and inhaled mass. […] This later dose was modeled to be delivered in 1 minute.

[3] = test system: proliferation of fibroblasts; LPS-stimulated release of PDGF, TNF-alpha and TGF-beta1; collagen synthesis; conditions: depending on the assay conditions; cited from earlier work
[4] = Pharmacokinetics and tissue distribution (lung, plasma, heart, kidney) of co-solvent formulations, bolus intratracheal aerosol; format: in vivo, Sprague-Dawley rats; conditions: for concentration at 4 min / concentration at 0.1 h / concentration at 0.167 h / concentration at 0.333 h: Sprague-Dawley, rat, lung, other: intratracheal bolus aerosol (nebulizing catheter), 4 mg/kg, about 4 mg/kg pirfenidone IT bolus aerosol, read-out: Analyte in lung tissue, Mean; for concentration at 4 min: 0.0667 hr
Description: Selected formulations were prepared for pharmacokinetic analysis following aerosol delivery to rat lung. […] Formulations prepared for this study are outlined in Table 9. […] The sample was agitated until completely dissolved. […] Filtered samples were analyzed by HPLC.

[5] = test system: CYP2C9, 2C19, 2D6, and 2E1; conditions: hepatic microsomes; cited from earlier work
[6] = Stability assessment of pirfenidone formulations at 25° C./60RH and 40° C./75RH; format: physicochemical; conditions: for Measured Pirfenidone / mOsmol/kg / pH: time zero
Description: The sample was agitated until completely dissolved. Once dissolved, samples were filtered via syringe through a 0.22 μm PVDF filter.
Samples were refrigerated to reduce evaporative loss of volatile co-solvents (ethanol) during filtration and dispensing. An approximate 5.0-mL aliquot of each formulation was transferred to class A glass 6 ml containers with suitable closures (20 mm stopper). At least 8 containers are being maintained in the upright orientation at 25° C./60RH, and another 8 containers maintained at 40° C./75RH.

[7] = Osmolality determination and nebulization for taste testing, throat irritation and cough response of selected formulations; conditions: for Cough Response? / Throat Irritation?: nebulized
Source text: Selected formulations were subjected to osmolality determination and nebulization for taste testing and throat irritation and or cough response.

[8] = 25° C./60% RH, 5 mM phosphate buffer pH 6.5 plus 1% (v/v) EtOH, 2% (v/v) PG, target pirfenidone 1 mg/mL
[9] = 25° C./60% RH, 5 mM phosphate buffer pH 6.5 plus 1% (v/v) EtOH, 2% (v/v) PG, target pirfenidone 15 mg/mL
[10] = 25° C./60% RH, 5 mM phosphate buffer pH 6.5 plus 4% (v/v) EtOH, 8% (v/v) PG, target pirfenidone 23 mg/mL
[11] = 25° C./60% RH, 5 mM phosphate buffer pH 6.5 plus 6% (v/v) EtOH, 12% (v/v) PG, target pirfenidone 30 mg/mL
[12] = 25° C./60% RH, 5 mM phosphate buffer pH 6.5 plus 8% (v/v) EtOH, 16% (v/v) PG, target pirfenidone 1 mg/mL
[13] = 25° C./60% RH, 5 mM phosphate buffer pH 6.5 plus 8% (v/v) EtOH, 16% (v/v) PG, target pirfenidone 38 mg/mL
[14] = 40° C./75% RH, 5 mM phosphate buffer pH 6.5 plus 1% (v/v) EtOH, 2% (v/v) PG, target pirfenidone 1 mg/mL
[15] = 40° C./75% RH, 5 mM phosphate buffer pH 6.5 plus 1% (v/v) EtOH, 2% (v/v) PG, target pirfenidone 15 mg/mL
[16] = 40° C./75% RH, 5 mM phosphate buffer pH 6.5 plus 4% (v/v) EtOH, 8% (v/v) PG, target pirfenidone 23 mg/mL
[17] = 40° C./75% RH, 5 mM phosphate buffer pH 6.5 plus 6% (v/v) EtOH, 12% (v/v) PG, target pirfenidone 30 mg/mL
[18] = 40° C./75% RH, 5 mM phosphate buffer pH 6.5 plus 8% (v/v) EtOH, 16% (v/v) PG, target pirfenidone 1 mg/mL
[19] = 40° C./75% RH, 5 mM phosphate buffer pH 6.5 plus 8% (v/v) EtOH, 16% (v/v) PG, target pirfenidone 38 mg/mL
[20] = 5 mM phosphate buffer pH 6.5 plus 1% (v/v) EtOH, 2% (v/v) PG, target pirfenidone 1 mg/mL
[21] = 5 mM phosphate buffer pH 6.5 plus 1% (v/v) EtOH, 2% (v/v) PG, target pirfenidone 15 mg/mL
[22] = 5 mM phosphate buffer pH 6.5 plus 4% (v/v) EtOH, 8% (v/v) PG, target pirfenidone 23 mg/mL
[23] = 5 mM phosphate buffer pH 6.5 plus 6% (v/v) EtOH, 12% (v/v) PG, target pirfenidone 30 mg/mL
[24] = 5 mM phosphate buffer pH 6.5 plus 8% (v/v) EtOH, 16% (v/v) PG, target pirfenidone 1 mg/mL
[25] = 5 mM phosphate buffer pH 6.5 plus 8% (v/v) EtOH, 16% (v/v) PG, target pirfenidone 38 mg/mL
[26] = pirfenidone 27.2 mg/mL, 4% EtOH, 8% PG, 88% phosphate buffer (5 mM), pH 6.6
[27] = pirfenidone 34.7 mg/mL, 6% EtOH, 12% PG, 82% phosphate buffer (5 mM), pH 7.0
[28] = pirfenidone 43.7 mg/mL, 8% EtOH, 16% PG, 0 mM sodium saccharin, 76% phosphate buffer (5 mM), pH 7.0
[29] = pirfenidone 43.7 mg/mL, 8% EtOH, 16% PG, 0.3 mM sodium saccharin, 76% phosphate buffer (5 mM), pH 7.0

Cc1ccc(=O)n(-c2ccccc2)c1 [pirfenidone, 5-methyl-1-phenyl-2-(1H)-pyridone]
T1/2 beta ([1]; lung tissue (derived solely from plasma T1/2), aerosol 47 mg RDD, 2009 fasted-state): 2.5 h
T1/2 beta ([1]; lung tissue (derived solely from plasma T1/2), oral 801 mg, fasted-state, 2009): 2.5 h
T1/2 beta ([1]; lung tissue (derived solely from plasma T1/2), oral 801 mg, fed-state, 2009): 2.4 h
T1/2 beta ([1]; plasma, aerosol 47 mg RDD, 2009 fasted-state): 2.5 h
T1/2 beta ([1]; plasma, oral 801 mg, fasted-state, 2009): 2.5 h
T1/2 beta ([1]; plasma, oral 801 mg, fed-state, 2009): 2.4 h
lung tissue Cmax compared to the 801 mg oral pirfenidone dose ([2]; 2.5 mg RDD inhaled over 1 minute, human model): equivalent
possible achieved human lung tissue Cmax ([2]; 29 mg RDD, 3 minute tidal-inhaled nebulized dose): 43.2 mcg/gram lung tissue
plasma AUC compared to the 801 mg oral pirfenidone dose ([2]; 120 mg RDD inhaled over 5 minutes, human model): equivalent
lower end of concentrations at which in vitro activities were evident [3]: about 30 microM; also recorded: about 5.5 mcg/mL
upper end of concentrations at which in vitro activities were evident [3]: about 10 mM; also recorded: about 1.85 mg/mL
concentration at 4 min ([4]; Group 1): 10400 ng/g
concentration at 0.1 h ([4]; Group 1): 7530 ng/g
concentration at 0.167 h ([4]; Group 1): 5360 ng/g
concentration at 0.333 h ([4]; Group 1): 4150 ng/g
concentration at 4 min ([4]; Group 2): 8530 ng/g
concentration at 0.1 h ([4]; Group 2): 5980 ng/g
concentration at 0.167 h ([4]; Group 2): 5710 ng/g
concentration at 0.333 h ([4]; Group 2): 3790 ng/g
concentration at 4 min ([4]; Group 3): 17300 ng/g
concentration at 0.1 h ([4]; Group 3): 7340 ng/g
concentration at 0.167 h ([4]; Group 3): 6160 ng/g
concentration at 4 min ([4]; Group 4): 7770 ng/g
concentration at 0.1 h ([4]; Group 4): 7500 ng/g
concentration at 0.167 h ([4]; Group 4): 5230 ng/g
concentration at 4 min ([4]; Group 5): 10700 ng/g
concentration at 0.1 h ([4]; Group 5): 5830 ng/g
concentration at 0.167 h ([4]; Group 5): 8780 ng/g
concentration at 4 min ([4]; Group 6): 7930 ng/g
concentration at 0.1 h ([4]; Group 6): 6830 ng/g
concentration at 0.167 h ([4]; Group 6): 5170 ng/g
adverse events ([4]; about 4 mg/kg intratracheal aerosol, co-solvent formulations): No adverse events were noted
contribution of each isoenzyme to metabolism [5]: less than 13%
Pirfenidone (mg/mL) at Time = 0 [6, 8]: 1.0 mg/mL
Pirfenidone (mg/mL) at Time = 1 month [6, 8]: 1.0 mg/mL
Pirfenidone (mg/mL) at Time = 3 month [6, 8]: 1.0 mg/mL
Pirfenidone (mg/mL) at Time = 6 month [6, 8]: 1.0 mg/mL
Pirfenidone (mg/mL) at Time = 0 [6, 9]: 16.1 mg/mL
Pirfenidone (mg/mL) at Time = 1 month [6, 9]: 15.1 mg/mL
Pirfenidone (mg/mL) at Time = 3 month [6, 9]: 14.9 mg/mL
Pirfenidone (mg/mL) at Time = 6 month [6, 9]: 15.4 mg/mL
Pirfenidone (mg/mL) at Time = 0 [6, 10]: 24.1 mg/mL
Pirfenidone (mg/mL) at Time = 1 month [6, 10]: 22.1 mg/mL
Pirfenidone (mg/mL) at Time = 3 month [6, 10]: 22.3 mg/mL
Pirfenidone (mg/mL) at Time = 6 month [6, 10]: 23.2 mg/mL
Pirfenidone (mg/mL) at Time = 0 [6, 11]: 30.3 mg/mL
Pirfenidone (mg/mL) at Time = 1 month [6, 11]: 30.1 mg/mL
Pirfenidone (mg/mL) at Time = 3 month [6, 11]: 29.6 mg/mL
Pirfenidone (mg/mL) at Time = 6 month [6, 11]: 31.0 mg/mL
Pirfenidone (mg/mL) at Time = 0 [6, 12]: 1.0 mg/mL
Pirfenidone (mg/mL) at Time = 1 month [6, 12]: 1.0 mg/mL
Pirfenidone (mg/mL) at Time = 3 month [6, 12]: 1.0 mg/mL
Pirfenidone (mg/mL) at Time = 6 month [6, 12]: 1.0 mg/mL
Pirfenidone (mg/mL) at Time = 0 [6, 13]: 38.9 mg/mL
Pirfenidone (mg/mL) at Time = 1 month [6, 13]: 38.3 mg/mL
Pirfenidone (mg/mL) at Time = 3 month [6, 13]: 38.0 mg/mL
Pirfenidone (mg/mL) at Time = 6 month [6, 13]: 39.2 mg/mL
Pirfenidone (mg/mL) at Time = 0 [6, 14]: 1.0 mg/mL
Pirfenidone (mg/mL) at Time = 1 month [6, 14]: 1.0 mg/mL
Pirfenidone (mg/mL) at Time = 3 month [6, 14]: 1.0 mg/mL
Pirfenidone (mg/mL) at Time = 6 month [6, 14]: 1.0 mg/mL
Pirfenidone (mg/mL) at Time = 0 [6, 15]: 16.1 mg/mL
Pirfenidone (mg/mL) at Time = 1 month [6, 15]: 15.1 mg/mL
Pirfenidone (mg/mL) at Time = 3 month [6, 15]: 14.8 mg/mL
Pirfenidone (mg/mL) at Time = 6 month [6, 15]: 15.5 mg/mL
Pirfenidone (mg/mL) at Time = 0 [6, 16]: 24.1 mg/mL
Pirfenidone (mg/mL) at Time = 1 month [6, 16]: 22.4 mg/mL
Pirfenidone (mg/mL) at Time = 3 month [6, 16]: 22.1 mg/mL
Pirfenidone (mg/mL) at Time = 6 month [6, 16]: 23.3 mg/mL
Pirfenidone (mg/mL) at Time = 0 [6, 17]: 30.3 mg/mL
Pirfenidone (mg/mL) at Time = 1 month [6, 17]: 30.3 mg/mL
Pirfenidone (mg/mL) at Time = 3 month [6, 17]: 30.0 mg/mL
Pirfenidone (mg/mL) at Time = 6 month [6, 17]: 31.1 mg/mL
Pirfenidone (mg/mL) at Time = 0 [6, 18]: 1.0 mg/mL
Pirfenidone (mg/mL) at Time = 1 month [6, 18]: 1.0 mg/mL
Pirfenidone (mg/mL) at Time = 3 month [6, 18]: 1.0 mg/mL
Pirfenidone (mg/mL) at Time = 6 month [6, 18]: 1.0 mg/mL
Pirfenidone (mg/mL) at Time = 0 [6, 19]: 38.9 mg/mL
Pirfenidone (mg/mL) at Time = 1 month [6, 19]: 38.4 mg/mL
Pirfenidone (mg/mL) at Time = 3 month [6, 19]: 38.0 mg/mL
Pirfenidone (mg/mL) at Time = 6 month [6, 19]: 37.9 mg/mL
Measured Pirfenidone [6, 20]: 1.0 mg/mL
mOsmol/kg [6, 20]: 452 mOsmol/kg
pH [6, 20]: 6.69
Measured Pirfenidone [6, 21]: 16.1 mg/mL
mOsmol/kg [6, 21]: 512 mOsmol/kg
pH [6, 21]: 6.65
Measured Pirfenidone [6, 22]: 24.1 mg/mL
pH [6, 22]: 6.78
Measured Pirfenidone [6, 23]: 30.3 mg/mL
mOsmol/kg [6, 23]: 2863 mOsmol/kg
pH [6, 23]: 6.90
Measured Pirfenidone [6, 24]: 1.0 mg/mL
mOsmol/kg [6, 24]: 3590 mOsmol/kg
pH [6, 24]: 6.98
Measured Pirfenidone [6, 25]: 38.9 mg/mL
mOsmol/kg [6, 25]: 3750 mOsmol/kg
pH [6, 25]: 7.04
Cough Response? [7, 26]: No
Throat Irritation? [7, 26]: No
Cough Response? [7, 27]: No
Throat Irritation? [7, 27]: No
Cough Response? [7, 28]: No
Throat Irritation? [7, 28]: No
Cough Response? [7, 29]: No
Throat Irritation? [7, 29]: No
Osmolality ([7]; pirfenidone 27.2 mg/mL, 4% EtOH, 8% PG, 88% phosphate buffer (5 mM), pH 6.6, calculated): ~1830* mOsmo/Kg
Osmolality ([7]; pirfenidone 34.7 mg/mL, 6% EtOH, 12% PG, 82% phosphate buffer (5 mM), pH 7.0, calculated): ~2750* mOsmo/Kg
Osmolality [7, 28]: 3672 mOsmo/Kg
Osmolality [7, 29]: 3672 mOsmo/Kg
